From US4857530A, “Substituted quinazolinones as anticancer agents” (Warner-Lambert Company, priority 1987, dated 1989)
pIC50: −log10 of the molar value.

Experiments:
[1] = test system: ovarian and breast cancer; settings: cited from earlier work
[2] = test system: TS; settings: cited from earlier work
[3] = cited from earlier work
[4] = target: T1, Thymidylate synthase isolated from L1210 murine leukemia cells (Mus musculus, UniProt P07607); assay: inhibition of thymidylate synthase (tritium release assay); assay type: biochemical; settings: 50 μ molar deoxyuridine, 100 μmolar 5,10-methylene-tetrahydrofolate
T1 construct: endogenous in cells
T1 sequence (P07607 whole entry): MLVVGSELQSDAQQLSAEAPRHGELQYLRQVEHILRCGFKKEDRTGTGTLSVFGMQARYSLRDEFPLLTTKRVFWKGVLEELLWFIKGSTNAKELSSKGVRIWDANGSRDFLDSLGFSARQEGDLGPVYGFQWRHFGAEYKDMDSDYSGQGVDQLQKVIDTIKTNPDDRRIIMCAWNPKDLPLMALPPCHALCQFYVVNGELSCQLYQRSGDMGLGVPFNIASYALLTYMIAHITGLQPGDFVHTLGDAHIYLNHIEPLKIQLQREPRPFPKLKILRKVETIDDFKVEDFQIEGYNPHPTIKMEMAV
Experimental: The compounds of formula I are valuable anticancer agents. The tests employed indicate that compounds of formula I inhibit the enzyme thymidylate synthase. Thymidylate synthase catalyzes the methylation of deoxyuridine monophosphate to thymidine monophosphate and therefore plays a key role in the synthesis of the only nucleotide required exclusively for deoxyribonucleic acid (DNA) synthesis. […] Thus, the compounds of formula I were tested for their ability to inhibit thymidylate synthase. […] Inhibition of thymidylate synthetase by the new quinazoline antifolate CB3717: enzyme purification and kinetics. In: […]., Simmonds, H. A., Muller, M. M. (eds.) "Purine metabolism in man, IV part B. Biochemical, immunological and cancer research." Plenum Publishing Corp., New York, 1984, pp. 375-378. Thymidylate synthase enzyme activity was determined by the tritium release assay method described by Roberts, Biochemistry, 5:3546-3548 (1966).

[5] = test system: L1210 murine leukemia cell line; assay: growth inhibition of L1210 murine leukemia cell line in vitro; assay type: cell-based; settings: Mus musculus, L1210, 72 h
Experimental: The compounds of formula I were also tested against the L1210 murine leukemia cell line in vitro.
A cell culture of the L1210 murine leukemia cell line is grown in RPMI 1640 culture medium supplemented with 5% fetal bovine serum containing gentamicin (50 micrograms per milliliter). Dilutions of the test compound are prepared in the appropriate solvent and 20 microliters of each dilution are added to a 24-well Linbro tissue culture plate, followed by the addition of 2.0 ml of cell suspension containing 3×10^4 cells/milliliter. Solvent and medium controls are included in each test.
After incubation at 37° C. for three days in 5% CO2, the contents of each well are removed and the cells are counted in a ZBI Coulter counter.

[6] = test system: cells made resistant to the classical DHFR inhibitor methotrexate; settings: cited from earlier work

Compound: C#CCN(Cc1ccc2nc(N)nc(O)c2c1)c1ccc(C(=O)N[C@@H](CCC(=O)O)C(=O)O)cc1 [CB 3717, N-(4(N-((2-amino-4-hydroxy-6-quinazolinyl)methyl)prop-2-ynylamino)benzoyl)-L-glutamic acid]
- liver toxicity ([1]; Phase I clinical trials): nondose related liver toxicity
- kidney toxicity ([1]; Phase I clinical trials, due in part to poor solubility): dose limiting kidney toxicity
- clinical responses ([1]; Phase I, patients with ovarian and breast cancer): Minor and partial clinical responses
- TS inhibition (in words) ([2]; background): selective, tight binding TS inhibitor
- solubility [3]: poor solubility

Compound: C#CCN(Cc1ccc2nc[nH]c(=O)c2c1)c1ccc(C(C)=O)cc1 [Example 2, 6-[[(4-Acetylphenyl)-2-propynylamino]methyl]-4(3H)-quinazolinone]
- pIC50 [4]: 5.62
- pIC50 [5]: 5.15

Compound: C#CCN(Cc1ccc2nc[nH]c(=O)c2c1)c1ccc(Cl)c(Cl)c1 [Example 2a, 6-[[(3,4-Dichlorophenyl)-2-propynylamino]methyl]-4(3H)-quinazolinone]
- pIC50 [4]: 4.96
- pIC50 [5]: 5.40

Compound: C#CCN(Cc1ccc2nc[nH]c(=O)c2c1)c1cc(OC)c(OC)c(OC)c1 [Example 2c, 6-[[2-Propynyl-(3,4,5-trimethoxyphenyl)amino]methyl]-4(3H)-quinazolinone]
- pIC50 [4]: 4.02
- pIC50 [5]: < 5.00

Compound: C#CCN(Cc1ccc2nc(N)[nH]c(=O)c2c1)c1ccc(C(N)=O)cc1 [Example 2d, 4-[[(2-Amino-3,4-dihydro-4-oxo-6-quinazolinyl)methyl]-2-propynylamino]benzamide]
- pIC50 [4]: 6.19
- pIC50 [5]: < 4.70

Compound: C#CCN(Cc1ccc2nc(N)[nH]c(=O)c2c1)c1ccc(C#N)cc1 [Example 2e, 4-[[(2-Amino-3,4-dihydro-4-oxo-6-quinazolinyl)methyl]-2-propynylamino]benzonitrile]
- pIC50 [4]: 5.89
- pIC50 [5]: 5.23

Compound: C#CCN(Cc1ccc2nc(N)[nH]c(=O)c2c1)c1ccc(F)cc1 [Example 2f, 2-Amino-6-[[(4-fluorophenyl)-2-propynylamino]methyl]-4(3H)-quinazolinone]
- pIC50 [4]: 4.94

Compound: C#CCN(Cc1ccc2nc(N)nc(O)c2c1)c1ccc(Cl)c(Cl)c1 [Example 2g, 2-Amino-6-[[(3,4-Dichlorophenyl)-2-propynylamino]methyl]-4(3H)-quinazolinone]
- pIC50 [4]: 5.30
- pIC50 [5]: 4.90

Compound: C#CCN(Cc1ccc2nc(N)[nH]c(=O)c2c1)c1ccc(OC(F)(F)F)cc1 [Example 2h, 2-Amino-6-[[2-propynyl[4-(trifluoromethoxy)phenyl]amino]methyl]-4(3H)-quinazolinone]
- pIC50 [4]: 4.95
- pIC50 [5]: 4.60

Compound: C#CCN(Cc1ccc2nc(N)[nH]c(=O)c2c1)c1ccc([N+](=O)[O-])cc1 [Example 2i, 2-Amino-6-[[(4-nitrophenyl)-2-propynylamino]methyl]-4(3H)-quinazolinone]
- pIC50 [4]: 6.21
- pIC50 [5]: 5.62

Compound: C#CCN(Cc1ccc2nc(N)[nH]c(=O)c2c1)c1ccc(C(C)=O)cc1 [Example 2j, 6-[[(4-Acetylphenyl)-2-propynylamino]methyl]-2-amino-4(3H)-quinazolinone]
- pIC50 [4]: 6.11
- pIC50 [5]: 5.37

Compound: C#CCN(Cc1ccc2nc(N)[nH]c(=O)c2c1)c1ccc(C(=O)C(F)(F)F)cc1 [Example 2k, 2-Amino-6-[[2-propynyl[4-(trifluoroacetyl)phenyl]amino]methyl]-4(3H)-quinazolinone]
- pIC50 [4]: 6.29
- pIC50 [5]: 4.93

Compound: C#CCN(Cc1ccc2nc(N)nc(O)c2c1)c1cc(OC)c(OC)c(OC)c1 [Example 2l, 2-Amino-6-[[2-propynyl(3,4,5-trimethoxyphenyl)amino]methyl]-4(3H)-quinazolinone]
- pIC50 [4]: 4.30
- pIC50 [5]: < 4.70

Compound: C#CCN(Cc1ccc2nc(N)[nH]c(=O)c2c1)c1ccc(S(=O)(=O)N(C)C)cc1 [Example 2n, 4-[[(2-Amino-3,4-dihydro-4-oxo-6-quinazolinyl)methyl]-2-propynylamino]-N,N-dimethylbenzenesulfonamide]
- pIC50 [4]: 6.00
- pIC50 [5]: 5.39

Compound: C#CCN(Cc1ccc2nc(N)[nH]c(=O)c2c1)c1ccc(C(=O)O)cc1 [formula A; R=OH]
- decrease of TS inhibition over the classical antifolate analog on removal of the glutamate residue ([2]; Jones et al, J. Med. Chem. 29, 1114-1118 (1986)): 84 fold

Compound: COc1cc(NCc2ccc3nc(N)nc(N)c3c2C)cc(OC)c1OC [trimetrexate]
- circumvention of impaired transport resistance [6]: shown to circumvent the impaired transport
